# Laboratory results from patent publication US9939427B2, “Method for evaluating the scent performance of perfumes or perfume mixtures” (Symrise AG, priority 2013, dated 2018).
# Key:
# [1] = test system: HEK293 cells transfected with all cofactors and pCI plasmids without ORs; assay: Ca-imaging of control HEK293 cells without OR; type: cell-based
# Procedure, shortened: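 HEK293 cells transfected by calcium phosphate with empty pCI plus Gα15, RTP1, Myr-Ric8A, HSC70 and mCherry, incubated 48–60 h, then loaded with 3 µM Fura-2/AM for 30–45 min. Odorants in Ringer's applied as mixtures at 200 µM each or singly at 100–200 µM, with 0.25 mM ATP at the end. Ca2+ followed as 340/380 nm ratio every 4 s; responses as ΔF/F0, judged by timing, amplitude above twice baseline noise and curve shape.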
# OR10Q1 = molecular target: T1, OR10Q1 (Homo sapiens, UniProt Q8NGQ4); assay: CRE-luciferase assay, OR10Q1 in HANA3A cells; type: cell-based; settings: 50 μM, 100 μM, 150 μM, 200 μM and 250 μM; ratio of firefly to renila
# T1 construct: specific primers, which amplify the complete open reading frame; expressed in transfected cells; host or cells: HEK293
# T1 sequence (Q8NGQ4 1-319): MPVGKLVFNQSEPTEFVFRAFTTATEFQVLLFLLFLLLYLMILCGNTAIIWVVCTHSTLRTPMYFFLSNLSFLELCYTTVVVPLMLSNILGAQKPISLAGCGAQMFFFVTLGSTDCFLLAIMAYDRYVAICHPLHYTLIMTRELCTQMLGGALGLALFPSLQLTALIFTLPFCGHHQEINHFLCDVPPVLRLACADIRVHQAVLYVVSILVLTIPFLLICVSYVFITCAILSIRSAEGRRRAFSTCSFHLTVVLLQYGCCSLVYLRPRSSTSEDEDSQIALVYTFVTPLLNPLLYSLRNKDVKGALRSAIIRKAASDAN
# Experimental: Calcium cations and phosphate anions created crystal precipitations coupled with DNA which could invade into the cells through endocytosis. Cells were transiently transfected with plasmid DNA which consists of pCI expression vector and PCR-amplified full-length cDNA of olfactory receptors candidates, and also Gα15, RTP1, Myr-Ric8A, HSC70, and m-Cherry as cofactors. The precipitation could be created after 15-20 min, with dropping the transfection solution on HEK293 cells. Before measuring by Ca-imaging cells were incubated 48-60 hours at 370 C, 5% CO2. Cationic liposome-mediated transfection method was applied to transfect DNA plasmid transiently in HANA3A cells in case of CRE-Luciferase and CRE-SEAP assays. […]
# ORs responded by Ca-imaging with seven separate odorant mixtures formed from 66 odorants. […] Transfected HANA3A cells on poly-D-lysine-coated 96 well plates are ready for stimulation after 24 h. […] Measuring by plate reader (Luminometer). • 6. […] Measuring by plate reader (Luminometer). • 8. According to manufacturer's protocols for measuring luciferase and renilla activities, calculate normalized luciferase activity with using the formula (Ln-Lmin)/(Lmax-Lmin), where Ln is the luminescence of firefly in response to the odorant, L min is the minimum luciferase value on a plate, and L max is the maximum luciferase value on plate. […]
smiles,measurement,setting,value
"O=C1CCCCCCCCCCCCCCO1 [Pentadecanolide, ω-cyclopentadecanolide]","Response of control cells, in words",[1]; 200 μM (FIG. 13),did not respond
same,"Number of cell responses, Control","[1]; odorant 200 μM, three times of measuring (Table 4, FIG. 5)",2
same,CRE-luciferase (cAMP assay) response of OR10Q1,OR10Q1,positive responses
